Test results published in article PMC12628652, “A Validated UPLC‐MS/MS Method for Monitoring Temozolomide and Perillyl Alcohol Metabolites in Biological Matrices: Insights From a Preclinical Pharmacokinetic Study” (Biomedical Chromatography, 2025).

Key:
[1] = Stability of analytes in rat plasma and tissue matrices (freeze-thaw, bench-top, autosampler); type: physicochemical; settings: for Stability (ER %) Autosampler: 10°C for 24 h; for Stability (ER %) Bench-top: room temperature for 6 h; for Stability (ER %) Freeze/thaw: three freeze–thaw cycles over 24-h intervals
Experimental: QC samples were prepared by spiking blank rat plasma with PA, AIC, and TMZ at three concentration levels: 30, 80, and 200 ng/mL. Internal standards (IS1 and IS2) were added to each sample at a final concentration of 100 ng/mL. Whole blood was obtained from untreated anesthetized rats that were euthanized as part of the study protocol. Blood samples were collected into heparinized tubes and centrifuged at 3500 rpm for 10 min at 20°C to separate plasma. Organs including the brain, lungs, kidneys, spleen, and liver were promptly excised and homogenized using a Marconi mechanical tissue homogenizer (5 mm probe) in phosphate‐buffered saline (PBS, pH 7.4) at a 1:5 (w/v) tissue‐to‐buffer ratio.
For each matrix sample, 50 μL of homogenate or plasma was mixed with 50 μL of internal standard (IS) solution (100 ng/mL), followed by the addition of the respective working solution to reach the target analyte concentration. The volume was adjusted to 1 mL using an appropriate solvent mixture. Samples were centrifuged again at 3500 rpm for 10 min at 4°C. The resulting supernatants were filtered through 0.22 μm membrane filters prior to chromatographic analysis. All calibration standards and QC samples were prepared freshly on the day of analysis to minimize analyte degradation.
The stability of PA, AIC, and TMZ in rat plasma was assessed under the following conditions using low, medium, and high QC levels: (1) Freeze–thaw stability: Three freeze–thaw cycles over 24‐h intervals; (2) Bench‐top stability: Storage at room temperature for 6 h; (3) Autosampler stability: Storage at 10°C for 24 h. Analytes were considered stable if the relative error (RE%) remained within ±15% (Tiwari and Tiwari [2010]).

[2] = set-up: method as in Ostermann et al. [2004]; settings: ref Ostermann et al. [2004]; cited from earlier work
[3] = rat brain homogenate, 200 ng/mL
[4] = rat kidney homogenate, 30 ng/mL
[5] = rat kidney homogenate, 80 ng/mL
[6] = rat kidney homogenate, 200 ng/mL
[7] = rat liver homogenate, 200 ng/mL
[8] = rat spleen homogenate, 30 ng/mL
[9] = rat spleen homogenate, 80 ng/mL
[10] = rat spleen homogenate, 200 ng/mL

Stability (ER %) Autosampler ([1]; rat brain homogenate, 30 ng/mL): 1.65% | Stability (ER %) Bench-top ([1]; rat brain homogenate, 30 ng/mL): 1.48% | Stability (ER %) Freeze/thaw ([1]; rat brain homogenate, 30 ng/mL): 9.76% | Stability (ER %) Autosampler ([1]; rat brain homogenate, 80 ng/mL): 1.89% | Stability (ER %) Bench-top ([1]; rat brain homogenate, 80 ng/mL): 7.73% | Stability (ER %) Freeze/thaw ([1]; rat brain homogenate, 80 ng/mL): 0.84% | Stability (ER %) Autosampler [1, 3]: 4.29% | Stability (ER %) Bench-top [1, 3]: 2.32% | Stability (ER %) Freeze/thaw [1, 3]: 4.42% | Stability (ER %) Autosampler [1, 4]: 1.41% | Stability (ER %) Bench-top [1, 4]: 1.99% | Stability (ER %) Freeze/thaw [1, 4]: 3.69% | Stability (ER %) Autosampler [1, 5]: 3.14% | Stability (ER %) Bench-top [1, 5]: 8.22% | Stability (ER %) Freeze/thaw [1, 5]: 9.44% | Stability (ER %) Autosampler [1, 6]: 4.92% | Stability (ER %) Bench-top [1, 6]: 3.77% | Stability (ER %) Freeze/thaw [1, 6]: 4.52% | Stability (ER %) Autosampler ([1]; rat liver homogenate, 30 ng/mL): 3.82% | Stability (ER %) Bench-top ([1]; rat liver homogenate, 30 ng/mL): 1.49% | Stability (ER %) Freeze/thaw ([1]; rat liver homogenate, 30 ng/mL): 5.67% | Stability (ER %) Autosampler ([1]; rat liver homogenate, 80 ng/mL): 4.07% | Stability (ER %) Bench-top ([1]; rat liver homogenate, 80 ng/mL): 6.41% | Stability (ER %) Freeze/thaw ([1]; rat liver homogenate, 80 ng/mL): 8.17% | Stability (ER %) Autosampler [1, 7]: 3.33% | Stability (ER %) Bench-top [1, 7]: 1.57% | Stability (ER %) Freeze/thaw [1, 7]: 1.54% | Stability (ER %) Autosampler ([1]; rat lung homogenate, 30 ng/mL): 4.82% | Stability (ER %) Bench-top ([1]; rat lung homogenate, 30 ng/mL): 7.99% | Stability (ER %) Freeze/thaw ([1]; rat lung homogenate, 30 ng/mL): 6.24% | Stability (ER %) Autosampler ([1]; rat lung homogenate, 80 ng/mL): 3.02% | Stability (ER %) Bench-top ([1]; rat lung homogenate, 80 ng/mL): 9.32% | Stability (ER %) Freeze/thaw ([1]; rat lung homogenate, 80 ng/mL): 7.19% | Stability (ER %) Autosampler ([1]; rat lung homogenate, 200 ng/mL): 2.51% | Stability (ER %) Bench-top ([1]; rat lung homogenate, 200 ng/mL): 5.54% | Stability (ER %) Freeze/thaw ([1]; rat lung homogenate, 200 ng/mL): 1.34% | Stability (ER %) Autosampler ([1]; rat plasma, 30 ng/mL): 12.84% | Stability (ER %) Bench-top ([1]; rat plasma, 30 ng/mL): 1.39% | Stability (ER %) Freeze/thaw ([1]; rat plasma, 30 ng/mL): 3.94% | Stability (ER %) Autosampler ([1]; rat plasma, 80 ng/mL): 5.39% | Stability (ER %) Bench-top ([1]; rat plasma, 80 ng/mL): 3.94% | Stability (ER %) Freeze/thaw ([1]; rat plasma, 80 ng/mL): 4.29% | Stability (ER %) Autosampler ([1]; rat plasma, 200 ng/mL): 13.24% | Stability (ER %) Bench-top ([1]; rat plasma, 200 ng/mL): 1.94% | Stability (ER %) Freeze/thaw ([1]; rat plasma, 200 ng/mL): 9.83% | Stability (ER %) Autosampler [1, 8]: 2.64% | Stability (ER %) Bench-top [1, 8]: 6.41% | Stability (ER %) Freeze/thaw [1, 8]: 5.86% | Stability (ER %) Autosampler [1, 9]: 2.61% | Stability (ER %) Bench-top [1, 9]: 1.35% | Stability (ER %) Freeze/thaw [1, 9]: 1.35% | Stability (ER %) Autosampler [1, 10]: 2.22% | Stability (ER %) Bench-top [1, 10]: 1.05% | Stability (ER %) Freeze/thaw [1, 10]: 3.86%
Structure (SMILES): Cn1nnc2c(C(N)=O)ncn2c1=O [TMZ, Temozolomide]
share of the plasma concentration reaching brain tissues [2]: ~ 20%
